Patent US20030008807A1, “Novel signaling pathway for the production of inflammatory pain and neuropathy” (The Regents of the University of California, priority 2001, published 2003)

Columns and labels:
ERK1/2 = assay: Epinephrine-stimulated ERK1/2 phosphorylation in cultured rat DRG neurons (Western analysis); type: cell-based
Method: Trypsin was inactivated by adding 100 μg/ml soybean trypsin inhibitor and 2.5 mg/ml MgSO4. The cells were centrifuged at 300×g for 5 min and resuspended culture media containing minimal essential medium (MEM) supplemented with 10% heat-inactivated fetal calf serum, 1×MEM vitamins, and 1000 U/ml each of penicillin and streptomycin. The culture was enriched for neurons by preplating on 100 mm culture dishes pretreated with 0.1 mg/ml poly-DL-ornithine in 15 mM sodium borate buffer. After culture for 15-20 hr, the loosely attached neuronal cells were collected and plated for 3 hr on six-well plates coated with 0.1 mg/ml poly-DL-ornithine and 1 mg/ml laminin.
After drug treatment, cells from neuron-enriched DRG cultures were collected and centrifuged at 300×g for 5 min at 4° C. […] Blots were incubated with anti-phospho-p42/44 MAP kinase antibody (diluted 1:500 in blocking buffer) overnight at 4° C. Blots were rinsed three times in PBS-T and incubated in blocking buffer containing HRP-conjugated goat anti-rabbit IgG (diluted 1:1000; Boehringer Mannheim, Indianapolis, Ind.) for 1 hr at 27° C. Immunoreactive bands were visualized by enhanced chemiluminescence (Amersham Pharmacia Biotech, Piscataway, N.J.). The membranes were then stripped of antibodies by incubation in 200 mM NaOH for 20 min at 27° C. […] After three washes in PBS-T, blots were incubated with HRP-conjugated goat anti-rabbit IgG (diluted 1:1000; Boehringer Mannheim) for 1 hr at 27° C., and immunoreactive bands were visualized by enhanced chemiluminescence and autoradiography. […] Data were normalized by dividing values obtained for phospho-ERK1 and phospho-ERK2 immunoreactivity by the value obtained for total ERK1 immunoreactivity for each sample.

[1] = test system: mechanical nociceptive threshold; conditions: epinephrine 100 ng, 3.82 and 4.54 N/mm^2
[2] = test system: mechanical nociceptive threshold; conditions: dose-response studies (Khasar et al., 1999b); cited from earlier work
[3] = test system: mechanical nociceptive threshold; conditions: injected intradermally (Khasar et al., 1999b); cited from earlier work
[4] = test system: mechanical nociceptive threshold; assay: Epinephrine-induced mechanical hyperalgesia, Randall-Selitto paw-withdrawal test (Example 1); conditions: rat, in vivo
From the text: The nociceptive flexion reflex (Randall-Selitto paw-withdrawal test) was quantified with a Basile Analge-symeter (Stoelting, Chicago, Ill.), which applies a linearly increasing mechanical force to the dorsum of the rat's hindpaw. The mechanical nociceptive threshold was defined as the force in grams at which the rat withdrew its paw. […] They were allowed to crawl into individual cylindrical Perspex blocks and were lightly restrained there by closing both ends of the cylinder. […] The rats were allowed to acclimatize to the restrainer for 5-10 min, after which the hindpaws were exposed to the test stimulus. Three readings were taken at 5 min intervals, and their mean was considered the baseline threshold. After each drug administration, mechanical paw-withdrawal thresholds were determined again as the mean of three readings taken 20, 25, and 30 min after injection.
Inhibitors were diluted with distilled water before intra-dermal injections into the paw using a 10 μl microsyringe (Hamilton, Reno, Nev.). Injections of peptides (1 μg/2.5 μl) were always preceded by injection of distilled water (2.5 μl) to produce hypo-osmotic shock. […] Paw-withdrawal thresholds were measured again 10, 15, and 20 min after injecting the test agent. The mean of the paw-withdrawal thresholds obtained at these three times was then taken as the mechanical nociceptive threshold at the dose of the test agent used. The effect of each dose a test agent was calculated as the percentage change from baseline.

[5] = test system: mechanical nociceptive threshold; assay: Epinephrine-induced hyperalgesia in gonad-intact and gonadectomized male and female rats (Example 2); conditions: for absolute decrease in threshold after epinephrine: n=18
Method: The nociceptive flexion reflex was quantified using the Randall-Selitto paw pressure device (Analgesymeter, Stoetling, Chicago, Ill., USA), which applies a linearly increasing mechanical force to the dorsum of the rat's hind paw. The mechanical nociceptive threshold was defined as the force in grams at which the rat withdrew its paw. […] Baseline paw-withdrawal threshold was defined as the mean of six readings before test agents were injected. […] Each group of rats was treated with only one agonist and/or antagonist injected peripherally by the intradermal route. […] All behavioural testing was done between 10.00 and 16.00 h. […] The protein kinase inhibitor was separated from the distilled water by drawing up a small air bubble (<1 μL) into the syringe after drawing up the protein kinase inhibitor but before drawing up the distilled water.
A stock solution of PGE2 (4 mg/mL) was made by dissolving it in 10% ethanol in normal saline; further dilution to 100 ng was made by addition of saline. Final concentration of ethanol was <10%. […] Stock solutions (1 μg/μL) of inhibitors were stored at −20° C. […] Inhibitors were injected at a concentration of 1 μg/2.5 μL.

For `CNC[C@H](O)c1ccc(O)c(O)c1` [epinephrine], the “ERK1/2 phosphorylation (representative Western blot)” value (ERK1/2) was “stimulation”, the “concentration at which effect on ERK phosphorylation appeared maximal” value (ERK1/2) was 1 µM and the “increase of phospho-ERK immunoreactivity over basal level” value (ERK1/2) was roughly 1.7 fold. For the same compound, the “time after which ERK phosphorylation returned to basal levels” value (ERK1/2) was 60 min, the “time at which epinephrine-evoked ERK phosphorylation was greatest” value (ERK1/2) was 5 min and the Emax (ERK1/2; Rattus norvegicus, DRG neuron, 5 min, read-out: maximal response relative to response to NGF) was 30 to 50%. For the same compound, the “response to VFH stimulation, wild-type vs PKCε mutant” value ([1]; female mice) was “similar”, the “epinephrine-induced change in nociceptive response in PKCε-null vs wild-type” value ([1]; male mice) was “significantly less” and the “dose producing maximal hyperalgesia” value [2] was 100 ng. The “ED50 for lowering the nociceptive threshold” value [3] was roughly 20 ng, the “decrease in mechanical nociceptive thresholds” value [4] was roughly 35% and the “change in mechanical nociceptive threshold over dose range” value ([5]; epinephrine 1-1000 ng intradermal, normal male and female rats) was “dose-dependent decrease”. For the same compound, the “decrease in threshold after epinephrine, gonadectomized vs gonad-intact” value ([5]; female rats, epinephrine 100 ng) was “greater”, the “absolute decrease in threshold after epinephrine” value ([5]; female rats) was 72.7 ± 0.9 g and the “decrease in paw-withdrawal threshold produced by epinephrine, gonadectomized vs gonad-intact” value ([5]; male rats, epinephrine 100 ng) was “no significant difference”. For the same compound, the “absolute decrease in threshold after epinephrine” value ([5]; male rats) was 63.7 ± 0.9 g.
